# The Kinase Knowledgebase extract (Sharma et al. 2016)
# Target: EGFR (UniProt P00533)
# Sequence (P00533 whole entry, looked up): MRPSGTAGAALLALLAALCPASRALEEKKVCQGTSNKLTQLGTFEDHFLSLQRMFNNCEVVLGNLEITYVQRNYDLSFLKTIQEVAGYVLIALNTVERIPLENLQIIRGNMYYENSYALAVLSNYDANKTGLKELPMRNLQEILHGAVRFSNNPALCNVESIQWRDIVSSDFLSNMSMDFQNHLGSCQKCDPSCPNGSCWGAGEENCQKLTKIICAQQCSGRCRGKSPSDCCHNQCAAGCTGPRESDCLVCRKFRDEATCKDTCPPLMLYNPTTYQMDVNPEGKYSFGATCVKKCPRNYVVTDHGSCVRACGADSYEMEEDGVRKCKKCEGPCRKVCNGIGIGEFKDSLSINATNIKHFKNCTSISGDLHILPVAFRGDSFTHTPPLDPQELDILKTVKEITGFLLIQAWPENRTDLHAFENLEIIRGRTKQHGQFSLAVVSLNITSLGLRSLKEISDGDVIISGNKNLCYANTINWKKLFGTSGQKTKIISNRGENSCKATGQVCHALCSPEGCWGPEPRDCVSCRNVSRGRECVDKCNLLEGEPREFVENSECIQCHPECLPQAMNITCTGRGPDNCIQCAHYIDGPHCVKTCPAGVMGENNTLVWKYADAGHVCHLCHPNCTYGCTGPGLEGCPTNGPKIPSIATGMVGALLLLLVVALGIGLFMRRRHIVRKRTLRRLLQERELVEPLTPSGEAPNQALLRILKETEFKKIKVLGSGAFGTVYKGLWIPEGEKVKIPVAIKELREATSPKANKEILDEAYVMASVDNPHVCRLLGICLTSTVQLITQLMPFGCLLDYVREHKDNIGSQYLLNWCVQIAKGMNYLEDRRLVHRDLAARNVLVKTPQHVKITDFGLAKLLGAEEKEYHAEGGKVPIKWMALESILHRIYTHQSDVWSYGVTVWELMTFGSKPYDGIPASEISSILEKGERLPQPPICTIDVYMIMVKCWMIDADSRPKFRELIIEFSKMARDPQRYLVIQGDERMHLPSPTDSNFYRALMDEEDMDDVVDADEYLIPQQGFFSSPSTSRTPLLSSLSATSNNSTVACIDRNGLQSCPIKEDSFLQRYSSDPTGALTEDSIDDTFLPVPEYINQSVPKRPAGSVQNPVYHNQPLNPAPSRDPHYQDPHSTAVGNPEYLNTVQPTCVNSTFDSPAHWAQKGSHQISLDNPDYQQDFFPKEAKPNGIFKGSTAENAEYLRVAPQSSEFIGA
row,IC50 [µg/mL],SMILES
1,2.4 to 3.5,COC(=O)c1ccc(-c2cc(Nc3ncnc(NCCN4CCOCC4)n3)[nH]n2)cc1
2,> 4.5,COc1cc(Nc2ncnc(-n3c(NCc4cccc([N+](=O)[O-])c4)nc4ccccc43)n2)cc(OC)c1OC
3,> 4.5,COc1cc(Nc2ncnc(-n3c(=O)sc4cc(Br)ccc43)n2)cc(OC)c1OC
4,0.4 to 2.4,COc1cc(Nc2ncnc(Nc3cc(-c4ccc(C(=O)N(C)C)cc4)n[nH]3)n2)cc(OC)c1OC
5,> 4.5,COc1ccc2c(c1)nc(Cl)n2-c1ncnc(Nc2cc(OC)c(OC)c(OC)c2)n1.COc1ccc2nc(Cl)n(-c3ncnc(Nc4cc(OC)c(OC)c(OC)c4)n3)c2c1
6,> 4.5,COc1cc(Nc2ncnc(-n3cc(CC(N)=O)c4ccccc43)n2)cc(OC)c1OC
7,0.4 to 2.4,O=C(O)CCNC(=O)c1ccc(Nc2ncnc(Nc3cc(-c4ccco4)[nH]n3)n2)cc1
8,> 4.5,COc1ccc2c(c1)c(CCNC(C)=O)cn2-c1ncnc(Nc2cc(OC)c(OC)c(OC)c2)n1
9,0.4 to 2.4,O=C(O)Cc1cccc(Nc2ncnc(-c3cccnc3Nc3ccccc3)n2)c1
10,> 4.5,CCN(CC)c1ccc(Nc2ncnc(N3CCCc4cc(C)ccc43)n2)cc1
11,> 4.5,Nc1ncnc(Nc2nc(-c3ccccc3)cs2)n1
12,2.4 to 3.5,NC(=O)c1ccc(Nc2ncnc(Nc3cc(-c4ccco4)n[nH]3)n2)cc1
13,> 4.5,COc1cc(Nc2ncnc(Nc3ncnc4[nH]cnc34)n2)cc(OC)c1OC
14,2.4 to 3.5,CN(c1ccccc1)c1ncnc(-n2c(N)nc3ccccc32)n1
15,0.4 to 2.4,COc1cc(Nc2ncnc(Nc3cnc4ccccc4c3)n2)cc(OC)c1OC
16,> 4.5,Cc1cc(Br)ccc1Nc1ncnc(-n2cccc2)n1
17,> 4.5,COc1cc(Nc2ncnc(-c3ccnc(N4CCCCC4)c3)n2)cc(OC)c1OC
18,0.4 to 2.4,COc1ccc(Nc2ncnc(Nc3ccc(F)c(F)c3)n2)cc1OC
19,3.5 to 4.5,c1ccc(Nc2ncccc2-c2ncnc(Nc3ccc4[nH]ncc4c3)n2)cc1
20,< 0.4,COc1ccc(Nc2ncnc(N(C)c3ccc(Cl)c(Cl)c3)n2)cc1OC
21,> 4.5,Nc1ncnc(-n2c(N)nc3ccccc32)n1
22,> 4.5,COc1cc(Nc2ncnc(-n3c(NC(C)c4ccc(F)cc4)nc4ccccc43)n2)cc(OC)c1OC (centres undefined)
23,0.4 to 2.4,Nc1nc2ccccc2n1-c1ncnc(Nc2cccc(Cl)c2)n1
24,> 4.5,O=c1[nH]c2ccccc2n1-c1ncnc(Nc2ncccn2)n1
25,0.4 to 2.4,CC(=O)NCc1ccc(Nc2ncnc(Nc3cc(-c4ccco4)n[nH]3)n2)cc1
26,0.4 to 2.4,CC(C)(C)c1cc(Nc2ncnc(Nc3cccc(CC(=O)O)c3)n2)[nH]n1

row,IC50 [µg/mL],SMILES
1,2.4 to 3.5,CN(C)c1ccc(Nc2ncnc(-n3c(N)nc4ccccc43)n2)cc1
2,> 4.5,COCCNc1ncnc(Nc2cc(-c3ccc(C(=O)OC)cc3)n[nH]2)n1
3,3.5 to 4.5,COc1cc(Nc2ncnc(Nc3cc(OC)c(OC)c(OC)c3)n2)cc(OC)c1OC
4,0.4 to 2.4,COc1cccc(Nc2ncnc(Nc3ccc(OCc4ccccc4)cc3)n2)c1
5,> 4.5,COc1cc(Nc2ncnc(Nc3ccncc3)n2)cc(OC)c1OC
6,> 4.5,NCCCNc1ncnc(-c2ccccc2)n1
7,> 4.5,COc1ccc([C@H](C)Nc2nc3ccccc3n2-c2ncnc(Nc3cc(OC)c(OC)c(OC)c3)n2)cc1
8,0.4 to 2.4,O=c1[nH]c2ccccc2n1-c1ncnc(Nc2nccc3ccccc23)n1
9,0.4 to 2.4,CCc1cccc(Nc2ncnc(-n3c(N)nc4ccccc43)n2)c1
10,2.4 to 3.5,COc1cc(Nc2ncnc(-n3c(Nc4ccc(OC(F)(F)F)cc4)nc4ccccc43)n2)cc(OC)c1OC
11,3.5 to 4.5,COc1cc(Nc2ncnc(-n3ccc4ccc(Cl)cc43)n2)cc(OC)c1OC
12,2.4 to 3.5,COc1ccc(Nc2ncnc(Nc3ccc4c(c3)C(=O)OC4)n2)cc1OC
13,2.4 to 3.5,COc1ccc(Nc2ncnc(Nc3cc(Cl)cc(Cl)c3)n2)cc1OC
14,> 4.5,COc1cc(Nc2ncnc(-n3c(NCc4ccc(F)cc4)nc4ccccc43)n2)cc(OC)c1OC
15,> 4.5,COc1cc(Nc2ncnc(-n3c(Nc4ccc(Cl)cc4)nc4ccccc43)n2)cc(OC)c1OC
16,> 4.5,COc1ccc(Nc2ncnc(NCCC#N)n2)cc1OC
17,< 0.4,O=C(O)Cc1cccc(Nc2ncnc(-n3c(NCc4ccccc4)nc4ccccc43)n2)c1
18,> 4.5,O=c1[nH]c2ccccc2n1-c1ncnc(Nc2ccccc2[N+](=O)[O-])n1
19,> 4.5,COc1cc(Nc2ncnc(-c3cccc(Cl)c3)n2)cc(OC)c1OC
20,> 4.5,COc1ccc(Nc2ncnc(Nc3ccc(OCc4ccccc4)cc3)n2)cc1
21,> 4.5,COc1cc(Nc2ncnc(-n3nc(-c4ccccc4)cc3N)n2)cc(OC)c1OC
22,> 4.5,CCOC(=O)N1CCC(Nc2ncnc(N3CCCc4cc(C)ccc43)n2)CC1
23,> 4.5,COc1cc(Nc2ncnc(-c3cccnc3NCCN3CCCCC3)n2)cc(OC)c1OC
24,> 4.5,COc1cc(Nc2ncnc(-c3ccnc(NCCCO)c3)n2)cc(OC)c1OC
25,> 4.5,FC(F)(F)c1cccc(Nc2ncnc(-n3cccc3)n2)c1
26,2.4 to 3.5,COc1cc(Nc2ncnc(-c3c(O)[nH]c4ccc(Cl)cc34)n2)cc(OC)c1OC

row,IC50 [µg/mL],SMILES
1,2.4 to 3.5,COc1ccc(Nc2ncnc(NCC(=O)c3ccccc3)n2)cc1OC
2,< 0.4,CCOC(=O)Cc1ccc(Nc2ncnc(Nc3cc(OC)c(OC)c(OC)c3)n2)cc1
3,< 0.4,COc1cc(Nc2ncnc(N3CCCC4CCCCC43)n2)cc(OC)c1OC (centres undefined)
4,2.4 to 3.5,COc1cccc(Nc2ncnc(-n3c(N)nc4ccccc43)n2)c1
5,0.4 to 2.4,OCc1cccc(Nc2ncnc(-c3cccnc3Nc3ccccc3)n2)c1
6,< 0.4,COc1cc(Nc2ncnc(Nc3ccc4[nH]ccc4c3)n2)cc(OC)c1OC
7,> 4.5,C=CCNc1cc(-c2ncnc(Nc3cc(OC)c(OC)c(OC)c3)n2)ccn1
8,> 4.5,COc1cc(Nc2ncnc(-n3c(Nc4cccc(C(N)=O)c4)nc4ccccc43)n2)cc(OC)c1OC
9,< 0.4,CN(c1cccc(Cl)c1)c1ncnc(Nc2cccc(CNC(=O)O[C@@H]3CCOC3)c2)n1
10,0.4 to 2.4,COc1cc(Nc2ncnc(N(CC(=O)O)c3ccc4c(c3)OCO4)n2)cc(OC)c1OC
11,> 4.5,COc1cc(Nc2ncnc(-n3c(NCc4ccc5c(c4)OCO5)nc4ccccc43)n2)cc(OC)c1OC
12,> 4.5,Nc1nc2ccccc2n1-c1ncnc(N2C(=O)c3ccccc3C2=O)n1
13,> 4.5,COc1ccc(N(C)c2ncnc(-n3c(N)nc4ccccc43)n2)cc1
14,> 4.5,COc1cc(Nc2ncnc(-n3c(Nc4cccc5cccnc45)nc4ccccc43)n2)cc(OC)c1OC
15,2.4 to 3.5,CC1CCc2ccccc2N1c1ncnc(N2c3ccccc3CCC2C)n1 (centres undefined)
16,> 4.5,COc1cc(Nc2ncnc(Nc3ccc(C(N)=O)cc3)n2)cc(OC)c1OC
17,> 4.5,COc1cccc(Nc2ncnc(-c3ccccc3)n2)c1
18,< 0.4,COc1cc(Nc2ncnc(NC3CC3c3ccccc3)n2)cc(OC)c1OCCN1CCOCC1 (centres undefined)
19,> 4.5,COc1cc(Nc2ncnc(-c3cccnc3NCc3ccc(F)cc3)n2)cc(OC)c1OC
20,2.4 to 3.5,O=c1[nH]c2ccccc2n1-c1ncnc(Nc2cccc(Cl)c2)n1
21,3.5 to 4.5,COc1cc(Nc2ncnc(-n3c(NCc4cccc(F)c4)nc4ccccc43)n2)cc(OC)c1OC
22,0.4 to 2.4,COCCOc1ccc(Nc2ncnc(Nc3ccc(C)c(O)c3)n2)cc1OCCOC
23,> 4.5,COc1cc(Nc2nc3ccccc3n2-c2ncnc(Nc3cc(OC)c(OC)c(OC)c3)n2)cc(OC)c1
24,> 4.5,CC(C)(C)OC(=O)NCc1cccc(Nc2ncnc(Nc3cc(C(C)(C)C)n[nH]3)n2)c1
25,< 0.4,C=CCN(c1cccc(Cl)c1)c1ncnc(Nc2cc(OC)cc(OC)c2)n1
26,0.4 to 2.4,Nc1nc2ccccc2n1-c1ncnc(Nc2ccc(Cl)cc2)n1

row,IC50 [µg/mL],SMILES
1,< 0.4,CN(c1cccc(Cl)c1)c1ncnc(Nc2cc(-c3ccco3)[nH]n2)n1
2,3.5 to 4.5,COc1cc(C)c(Nc2ncnc(Nc3cc(-c4ccc(Cl)cc4)n[nH]3)n2)cc1OC
3,> 4.5,COc1cc(Nc2ncnc(NC(=O)Nc3ccccc3)n2)cc(OC)c1OC
4,> 4.5,Cc1ccc2c(c1)CCCN2c1ncnc(NCC2CCCO2)n1 (centres undefined)
5,> 4.5,CNc1ncnc(Nc2cc(OC)c(OC)c(OC)c2)n1
6,> 4.5,COc1ccc2c(c1)nc(Nc1ccc3[nH]ccc3c1)n2-c1ncnc(Nc2cc(OC)c(OC)c(OC)c2)n1.COc1ccc2nc(Nc3ccc4[nH]ccc4c3)n(-c3ncnc(Nc4cc(OC)c(OC)c(OC)c4)n3)c2c1
7,0.4 to 2.4,CC(C)(C)OC(=O)NCc1cccc(Nc2ncnc(Nc3cc(-c4ccco4)n[nH]3)n2)c1
8,> 4.5,COc1cc(Nc2ncnc(N3CCCCC3)n2)cc(OC)c1OC
9,> 4.5,COC(=O)c1ccc(-c2cc(Nc3ncnc(Nc4cc(F)cc(F)c4)n3)[nH]n2)cc1
10,> 4.5,COc1ccc2c(c1)nc(NCc1ccccn1)n2-c1ncnc(Nc2cc(OC)c(OC)c(OC)c2)n1.COc1ccc2nc(NCc3ccccn3)n(-c3ncnc(Nc4cc(OC)c(OC)c(OC)c4)n3)c2c1
11,> 4.5,O=c1[nH]c2ccccc2n1-c1ncnc(Nc2cccc([N+](=O)[O-])c2)n1
12,> 4.5,COc1cc(Nc2ncnc(-c3cccnc3NC(C)c3cccc4ccccc34)n2)cc(OC)c1OC (centres undefined)
13,0.4 to 2.4,COc1cc(Nc2ncnc(Nc3ccc4nn(C)cc4c3)n2)cc(OC)c1OC
14,> 4.5,COc1cc(Nc2ncnc(N3CCC(O)CC3)n2)cc(OC)c1OC
15,> 4.5,NC(=O)c1ccccc1Nc1ncnc(-n2c(N)nc3ccccc32)n1
16,> 4.5,Nc1nc2ccccc2n1-c1ncnc(Nc2cccc(CC(=O)NCc3ccccn3)c2)n1
17,> 4.5,CCN1CCCC1CNc1ncnc(Nc2ccc(OC)c(OC)c2)n1 (centres undefined)
18,> 4.5,COc1ccc(CCNc2ncnc(N3CCCc4cc(C)ccc43)n2)cc1OC
19,> 4.5,COc1ccccc1Nc1nc2ccccc2n1-c1ncnc(Nc2cc(OC)c(OC)c(OC)c2)n1
20,> 4.5,CC(=O)NS(=O)(=O)c1ccc(Nc2ncnc(-n3c(=O)[nH]c4ccccc43)n2)cc1
21,> 4.5,COc1cc(Nc2ncnc(-c3c(O)n(C)c4ccccc34)n2)cc(OC)c1OC
22,2.4 to 3.5,c1ccc(CNc2nc3ccccc3n2-c2ncnc(Nc3cccc(Cn4ccnn4)c3)n2)nc1
23,2.4 to 3.5,COc1cc(Nc2ncnc(Nc3cc(-c4ccc(Cl)cc4)n[nH]3)n2)cc(OC)c1OC
24,> 4.5,COc1cc(Nc2ncnc(-n3c(NCc4ccc(C(F)(F)F)cc4)nc4ccccc43)n2)cc(OC)c1OC
25,> 4.5,Cc1ccc(Nc2ncnc(-n3cccc3)n2)cc1Cl
26,0.4 to 2.4,COc1cc(Nc2ncnc(NC(=O)NCc3ccccc3)n2)cc(OC)c1OC
